Among the data in patent US20240051970A1, “COMPOUNDS AND COMPOSITIONS FOR TREATING CONDITIONS ASSOCIATED WITH STING ACTIVITY” (IFM Due, Inc., priority 2020, published 2024) are EC50 values, retold here.

Molecules are shown by their SMILES.

In the test the target is T1, hSTING (Homo sapiens, UniProt Q86WV6, G230A/H232R/R293Q/R71H).
T1 construct: host or cells: THP1-Dual KO-IFNAR2 cells
T1 sequence (Q86WV6 whole entry R71H/G230A/H232R/R293Q): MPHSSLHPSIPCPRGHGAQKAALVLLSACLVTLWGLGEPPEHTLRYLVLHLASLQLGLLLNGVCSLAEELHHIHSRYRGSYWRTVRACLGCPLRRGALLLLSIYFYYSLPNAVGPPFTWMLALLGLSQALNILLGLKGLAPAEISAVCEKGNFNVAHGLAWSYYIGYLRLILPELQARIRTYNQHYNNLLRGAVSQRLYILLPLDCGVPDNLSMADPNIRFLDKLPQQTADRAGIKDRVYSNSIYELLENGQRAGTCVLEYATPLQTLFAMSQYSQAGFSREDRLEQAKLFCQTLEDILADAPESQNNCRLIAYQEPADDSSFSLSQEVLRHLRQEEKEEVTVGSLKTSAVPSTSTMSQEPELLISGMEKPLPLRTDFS
Put plainly: STING reporter assay (luciferase) in THP1-Dual KO-IFNAR2 cells activated with 2'3'cGAMP. It is filed as cell-based. Conditions: 15 μM 2'3'cGAMP, 24 h. As to the method:
STING pathway activation by the compounds described herein was measured using THP1-Dual™ cells (KO-IFNAR2).
THP1-Dual™ KO-IFNAR2 Cells (obtained from invivogen) were maintained in RPMI, 10% FCS, 5 ml P/S, 2 mM L-glut, 10 mM Hepes, and 1 mM sodium pyruvate. Compounds were spotted in empty 384 well tissue culture plates (Greiner 781182) by Echo for a final concentration of 0.0017-100 μM. Cells were plated into the TC plates at 40 μL per well, 2×10E6 cells/mL. For activation with STING ligand, 2′3′cGAMP (MW 718.38, obtained from Invivogen), was prepared in Optimem media.
The following solutions were prepared for each 1×384 plate: • Solution A: 2 mL Optimem with one of the following stimuli: • 60 μL of 10 mM 2′3′cGAMP 4 150 μM stock • Solution B: 2 mL Optimem with 60 μL Lipofectamine 2000 4 Incubate 5 min at RT
2 mL of solution A and 2 ml Solution B was mixed and incubated for 20 min at room temperature (RT). 20 μL of transfection solution (A+B) was added on top of the plated cells, with a final 2′3′cGAMP concentration of 15 μM. The plates were then centrifuged immediately at 340 g for 1 minute, after which they were incubated at 37° C., 5% CO2, >98% humidity for 24 h. Luciferase reporter activity was then measured. EC50 values were calculated by using standard methods known in the art.
Luciferase reporter assay: 10 μL of supernatant from the assay was transferred to white 384-plate with flat bottom and squared wells. One pouch of QUANTI-Luc™ Plus was dissolved in 25 mL of water. 100 μL of QLC Stabilizer per 25 mL of QUANTI-Luc™ Plus solution was added. 50 μL of QUANTI-Luc™ Plus/QLC solution per well was then added. Luminescence was measured on a Platereader (e.g., Spectramax I3X (Molecular Devices GF3637001)).
Luciferase reporter activity was then measured. EC50 values were calculated by using standard methods known in the art.
`COCCn1c(Nc2cc(Cl)c3cc[nH]c3c2)nc2cc(Cl)c(Cl)cc21` [Compound 104, 5,6-dichloro-N-(4-chloro-1H-indol-6-yl)-1-(2-methoxyethyl)-1H-benzo[d]imidazol-2-amine]: the EC50 (usually the concentration that produces a half-maximal response) lay within 1000 to 5000 nM. The value for `Fc1cc(Nc2nc3cc(Cl)c(Cl)cc3[nH]2)cc2[nH]ccc12` [Compound 105, 5,6-dichloro-N-(4-fluoro-1H-indol-6-yl)-1H-benzo[d]imidazol-2-amine] was 200 to 1000 nM; that for `Clc1ccc2c(c1)nc(Nc1cc(Cl)c3cc[nH]c3c1)n2Cc1ccccc1` [Compound 106, 1-benzyl-5-chloro-N-(4-chloro-1H-indol-6-yl)-1H-benzo[d]imidazol-2-amine] was 1000 to 5000 nM. The value for `Clc1ccc2c(c1)nc(Nc1cc(Cl)c3cc[nH]c3c1)n2CCc1ccccc1` [Compound 107, 5-chloro-N-(4-chloro-1H-indol-6-yl)-1-phenethyl-1H-benzo[d]imidazol-2-amine] was 1000 to 5000 nM.

Compound `Clc1cc(Nc2nc3ccc(C4CCC4)cc3[nH]2)cc2[nH]ccc12` [Compound 108, N-(4-chloro-1H-indol-6-yl)-6-cyclobutyl-1H-benzo[d]imidazol-2-amine] showed an EC50 of 200 to 1000 nM.

Regarding `Cn1c(Nc2cc(Cl)c3cc[nH]c3c2)nc2cc(Cl)c(Cl)cc21` [Compound 109, 5,6-dichloro-N-(4-chloro-1H-indol-6-yl)-1-methyl-1H-benzo[d]imidazol-2-amine], the EC50 is 200 to 1000 nM. For `Clc1cc2nc(Nc3cc(Cl)c4cc[nH]c4c3)[nH]c2cc1Cl` [Compound 110, 5,6-dichloro-N-(4-chloro-1H-indol-6-yl)-1H-benzo[d]imidazol-2-amine], the EC50 lay in the range of 40 to 200 nM. The value for `FC(F)(F)c1cc2[nH]c(Nc3cc(Cl)c4cc[nH]c4c3)nc2cn1` [Compound 111, N-(4-chloro-1H-indol-6-yl)-6-(trifluoromethyl)-1H-imidazo[4,5-c]pyridin-2-amine] was 200 to 1000 nM; that for `FC(F)(F)c1cnc2nc(Nc3cc(Cl)c4cc[nH]c4c3)[nH]c2c1` [Compound 112, N-(4-chloro-1H-indol-6-yl)-6-(trifluoromethyl)-1H-imidazo[4,5-b]pyridin-2-amine] was 200 to 1000 nM. In turn, `Cn1c(Nc2cc(Cl)c3cc[nH]c3c2)nc2cc(C(F)(F)F)ccc21` [Compound 113, N-(4-chloro-1H-indol-6-yl)-1-methyl-5-(trifluoromethyl)-1H-benzo[d]imidazol-2-amine] yielded an EC50 of 1000 to 5000 nM. Next, `Cn1c(Nc2ccc3cc[nH]c3c2)nc2ccc(C(F)(F)F)cc21` [Compound 114, N-(1H-indol-6-yl)-1-methyl-6-(trifluoromethyl)-1H-benzo[d]imidazol-2-amine]: 1000 to 5000 nM; `Fc1ccc2nc(Nc3cc(Cl)c4cc[nH]c4c3)[nH]c2c1` [Compound 115, N-(4-chloro-1H-indol-6-yl)-6-fluoro-1H-benzo[d]imidazol-2-amine]: 200 to 1000 nM; `N#Cc1ccc2[nH]c(Nc3cc(Cl)c4cc[nH]c4c3)nc2c1` [Compound 116, 2-((4-chloro-1H-indol-6-yl)amino)-1H-benzo[d]imidazole-5-carbonitrile]: 200 to 1000 nM. The value for `Clc1ccc2[nH]c(Nc3cc(Cl)c4cc[nH]c4c3)nc2c1` [Compound 117, 5-chloro-N-(4-chloro-1H-indol-6-yl)-1H-benzo[d]imidazol-2-amine] was 200 to 1000 nM; that for `Cc1ccc2[nH]c(Nc3cc(Cl)c4cc[nH]c4c3)nc2c1` [Compound 118, N-(4-chloro-1H-indol-6-yl)-5-methyl-1H-benzo[d]imidazol-2-amine] was 200 to 1000 nM; that for `Clc1cc(Nc2nc3cc(Br)ccc3[nH]2)cc2[nH]ccc12` [Compound 119, 5-bromo-N-(4-chloro-1H-indol-6-yl)-1H-benzo[d]imidazol-2-amine] was 200 to 1000 nM. Next, `FC(F)(F)c1ccc2[nH]c(Nc3cc(Cl)c4cc[nH]c4c3)nc2c1` [Compound 120, N-(4-chloro-1H-indol-6-yl)-5-(trifluoromethyl)-1H-benzo[d]imidazol-2-amine]: 200 to 1000 nM.

On to `Cn1c(Nc2ccc3cc[nH]c3c2)nc2cc(C(F)(F)F)ccc21` [Compound 121, N-(1H-indol-6-yl)-1-methyl-5-(trifluoromethyl)-1H-benzo[d]imidazol-2-amine], for which the concentration giving a half-maximal response (EC50) was 200 to 1000 nM. The value for `CCn1c(Nc2ccc3cc[nH]c3c2)nc2cc(C(F)(F)F)ccc21` [Compound 122, 1-ethyl-N-(1H-indol-6-yl)-5-(trifluoromethyl)-1H-benzo[d]imidazol-2-amine] was 1000 to 5000 nM; that for `FC(F)(F)c1ccc2[nH]c(Nc3ccc4cc[nH]c4c3)nc2c1` [Compound 123, N-(1H-indol-6-yl)-5-(trifluoromethyl)-1H-benzo[d]imidazol-2-amine] was 200 to 1000 nM. `CC(C)(C)C1CCC(c2ccc3[nH]c(Nc4cc(Cl)c5cc[nH]c5c4)nc3c2)CC1` (stereo not shown) [Compound 136, 5-(4-tert-butylcyclohexyl)-N-(4-chloro-1H-indol-6-yl)-1H-1,3-benzodiazol-2-amine] registered an EC50 of 1000 to 5000 nM. Next, `CCOC(=O)C1CCC(c2ccc3[nH]c(Nc4cc(Cl)c5cc[nH]c5c4)nc3c2)CC1` (stereo not shown) [Compound 138, ethyl 4-{2-[(4-chloro-1H-indol-6-yl)amino]-1H-1,3-benzodiazol-5-yl}cyclohexane-1-carboxylate]: 1000 to 5000 nM. Next, `OC1CCC(c2ccc3[nH]c(Nc4cc(Cl)c5cc[nH]c5c4)nc3c2)CC1` (stereo not shown) [Compound 139, 4-{2-[(4-chloro-1H-indol-6-yl)amino]-1H-1,3-benzodiazol-5-yl}cyclohexan-1-ol]: 1000 to 5000 nM; `CC(C)(C)OC(=O)N1C2C=C(c3ccc4[nH]c(Nc5cc(Cl)c6cc[nH]c6c5)nc4c3)CC1CC2` (stereo not shown) [Compound 140, tert-butyl 3-{2-[(4-chloro-1H-indol-6-yl)amino]-1H-1,3-benzodiazol-5-yl}-8-azabicyclo[3.2.1]oct-2-ene-8-carboxylate]: 1000 to 5000 nM; `Clc1cc(Nc2nc3cc(C4CCCOC4)ccc3[nH]2)cc2[nH]ccc12` (stereo not shown) [Compound 141, N-(4-chloro-1H-indol-6-yl)-5-(oxan-3-yl)-1H-1,3-benzodiazol-2-amine]: 200 to 1000 nM.

As to `FC(F)(F)C1CCC(c2ccc3[nH]c(Nc4cc(Cl)c5cc[nH]c5c4)nc3c2)CC1` (stereo not shown) [Compound 142, N-(4-chloro-1H-indol-6-yl)-5-[4-(trifluoromethyl)cyclohexyl]-1H-1,3-benzodiazol-2-amine], the EC50 lay in the range of 1000 to 5000 nM. Next, `CC1(C)CC(c2ccc3[nH]c(Nc4cc(Cl)c5cc[nH]c5c4)nc3c2)CC(C)(C)O1` [Compound 143, N-(4-chloro-1H-indol-6-yl)-5-(2,2,6,6-tetramethyloxan-4-yl)-1H-1,3-benzodiazol-2-amine]: 5000 to 100000 nM; `Cn1ccc(-c2ccc3[nH]c(Nc4cc(Cl)c5cc[nH]c5c4)nc3c2)n1` [Compound 144, N-(4-chloro-1H-indol-6-yl)-5-(1-methyl-1H-pyrazol-3-yl)-1H-1,3-benzodiazol-2-amine]: 200 to 1000 nM. In the case of `Clc1cc(Nc2nc3cc(-c4ccc(CN5CCOCC5)s4)ccc3[nH]2)cc2[nH]ccc12` [Compound 145, N-(4-chloro-1H-indol-6-yl)-5-{5-[(morpholin-4-yl)methyl]thiophen-2-yl}-1H-1,3-benzodiazol-2-amine], the EC50 was 200 to 1000 nM.

On to `Clc1cc(Nc2nc3cc(-c4ccc(N5CCCC5)nc4)ccc3[nH]2)cc2[nH]ccc12` [Compound 146, N-(4-chloro-1H-indol-6-yl)-5-[6-(pyrrolidin-1-yl)pyridin-3-yl]-1H-1,3-benzodiazol-2-amine], for which the EC50 lay within 1000 to 5000 nM. The value for `CN(C)CCn1cc(-c2ccc3[nH]c(Nc4cc(Cl)c5cc[nH]c5c4)nc3c2)cn1` [Compound 147, N-(4-chloro-1H-indol-6-yl)-5-{1-[2-(dimethylamino)ethyl]-1H-pyrazol-4-yl}-1H-1,3-benzodiazol-2-amine] was 5000 to 100000 nM; that for `CC(C)(C)OC(=O)NC1CCC(c2ccc3[nH]c(Nc4cc(Cl)c5cc[nH]c5c4)nc3c2)CC1` (stereo not shown) [Compound 148, tert-butyl N-(4-{2-[(4-chloro-1H-indol-6-yl)amino]-1H-1,3-benzodiazol-5-yl}cyclohexyl)carbamate] was 200 to 1000 nM. In turn, `N#CC1(c2ccc(-c3ccc4[nH]c(Nc5cc(Cl)c6cc[nH]c6c5)nc4c3)cc2)CC1` [Compound 149, 1-(4-{2-[(4-chloro-1H-indol-6-yl)amino]-1H-1,3-benzodiazol-5-yl}phenyl)cyclopropane-1-carbonitrile] registered an EC50 of 200 to 1000 nM.

In turn, `Cn1nccc1-c1ccc2[nH]c(Nc3cc(Cl)c4cc[nH]c4c3)nc2c1` [Compound 150, N-(4-chloro-1H-indol-6-yl)-5-(1-methyl-1H-pyrazol-5-yl)-1H-1,3-benzodiazol-2-amine] returned an EC50 of 200 to 1000 nM.
